Measurements as given in patent US12252493B2, “Imidazo[1,2-c]pyrimidine derivatives as PRC2 inhibitors for treating cancer” (Mirati Therapeutics, Inc., priority 2019, dated 2025).
pIC50: −log10 of the molar value. Read-outs that look alike come from different tables or passages of the source.

Columns and labels:
[1] = biological target: purified human, His-tagged PRC2 complex (Homo sapiens (Human), UniProt O75530); assay: Hot Spot HMT assay of PRC2 enzymatic activity (tritiated methyl transfer from SAM to core histone); format: biochemical; conditions: 10 nM purified PRC2 complex, 0.05 mg/ml core histone H3, 1 uM 3H-SAM, 1 hr at 30° C.; read-out: IC50, Inhibition of PRC2-mediated Enzymatic Activity
Sequence of purified human, His-tagged PRC2 complex (Q15910 whole entry): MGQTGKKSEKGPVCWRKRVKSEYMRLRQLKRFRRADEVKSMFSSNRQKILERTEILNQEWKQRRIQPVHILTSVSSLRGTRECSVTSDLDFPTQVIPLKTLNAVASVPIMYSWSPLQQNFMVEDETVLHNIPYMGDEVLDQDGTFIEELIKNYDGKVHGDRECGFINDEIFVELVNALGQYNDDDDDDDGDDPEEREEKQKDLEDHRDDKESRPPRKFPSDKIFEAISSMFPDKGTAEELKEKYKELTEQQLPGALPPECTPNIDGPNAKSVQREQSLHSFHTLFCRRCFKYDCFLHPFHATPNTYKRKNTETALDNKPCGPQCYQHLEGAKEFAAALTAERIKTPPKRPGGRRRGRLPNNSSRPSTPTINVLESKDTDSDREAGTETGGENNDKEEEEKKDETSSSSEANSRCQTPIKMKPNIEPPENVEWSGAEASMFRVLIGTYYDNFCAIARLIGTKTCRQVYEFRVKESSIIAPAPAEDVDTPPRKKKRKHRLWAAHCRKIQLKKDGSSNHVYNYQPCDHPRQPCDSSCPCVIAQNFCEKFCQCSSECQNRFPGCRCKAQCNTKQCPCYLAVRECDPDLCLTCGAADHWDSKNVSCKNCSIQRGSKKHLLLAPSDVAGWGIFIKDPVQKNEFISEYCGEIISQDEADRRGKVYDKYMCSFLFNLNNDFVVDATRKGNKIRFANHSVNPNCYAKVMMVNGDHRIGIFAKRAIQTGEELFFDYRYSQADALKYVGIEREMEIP
Sequence of purified human, His-tagged PRC2 complex (O75530 whole entry): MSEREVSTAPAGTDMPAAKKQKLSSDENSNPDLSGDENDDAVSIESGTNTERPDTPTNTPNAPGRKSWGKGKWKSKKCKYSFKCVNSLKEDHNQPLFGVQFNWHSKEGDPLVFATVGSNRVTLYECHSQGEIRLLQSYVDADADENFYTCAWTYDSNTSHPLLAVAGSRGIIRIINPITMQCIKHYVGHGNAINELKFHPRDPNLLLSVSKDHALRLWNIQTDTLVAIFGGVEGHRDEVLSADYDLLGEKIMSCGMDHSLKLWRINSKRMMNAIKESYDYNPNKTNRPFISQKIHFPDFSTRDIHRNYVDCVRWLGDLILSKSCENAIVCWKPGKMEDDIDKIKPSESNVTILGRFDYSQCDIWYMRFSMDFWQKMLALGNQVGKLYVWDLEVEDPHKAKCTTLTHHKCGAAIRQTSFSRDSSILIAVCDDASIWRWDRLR
Sequence of purified human, His-tagged PRC2 complex (Q15022 whole entry partner): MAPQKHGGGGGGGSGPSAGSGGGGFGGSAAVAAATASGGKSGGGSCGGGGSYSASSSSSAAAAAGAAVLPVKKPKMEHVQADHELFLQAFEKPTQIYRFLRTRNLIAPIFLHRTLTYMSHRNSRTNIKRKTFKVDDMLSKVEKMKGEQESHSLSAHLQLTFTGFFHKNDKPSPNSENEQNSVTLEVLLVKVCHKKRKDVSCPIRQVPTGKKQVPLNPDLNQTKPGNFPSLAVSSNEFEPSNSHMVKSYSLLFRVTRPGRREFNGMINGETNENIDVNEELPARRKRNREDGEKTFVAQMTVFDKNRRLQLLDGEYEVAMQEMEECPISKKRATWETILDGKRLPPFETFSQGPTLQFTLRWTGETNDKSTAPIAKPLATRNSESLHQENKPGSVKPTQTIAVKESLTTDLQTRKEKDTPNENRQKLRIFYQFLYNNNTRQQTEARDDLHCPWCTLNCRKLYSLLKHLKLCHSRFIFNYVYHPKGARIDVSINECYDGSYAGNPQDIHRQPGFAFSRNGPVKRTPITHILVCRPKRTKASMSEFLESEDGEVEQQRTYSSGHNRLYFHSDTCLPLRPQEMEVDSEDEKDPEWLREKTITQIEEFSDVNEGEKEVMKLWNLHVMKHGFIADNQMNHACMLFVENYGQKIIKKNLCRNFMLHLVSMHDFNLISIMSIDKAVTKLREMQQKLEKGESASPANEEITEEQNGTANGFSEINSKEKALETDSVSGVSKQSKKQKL
Sequence of purified human, His-tagged PRC2 complex (Q6ZN18 whole entry partner): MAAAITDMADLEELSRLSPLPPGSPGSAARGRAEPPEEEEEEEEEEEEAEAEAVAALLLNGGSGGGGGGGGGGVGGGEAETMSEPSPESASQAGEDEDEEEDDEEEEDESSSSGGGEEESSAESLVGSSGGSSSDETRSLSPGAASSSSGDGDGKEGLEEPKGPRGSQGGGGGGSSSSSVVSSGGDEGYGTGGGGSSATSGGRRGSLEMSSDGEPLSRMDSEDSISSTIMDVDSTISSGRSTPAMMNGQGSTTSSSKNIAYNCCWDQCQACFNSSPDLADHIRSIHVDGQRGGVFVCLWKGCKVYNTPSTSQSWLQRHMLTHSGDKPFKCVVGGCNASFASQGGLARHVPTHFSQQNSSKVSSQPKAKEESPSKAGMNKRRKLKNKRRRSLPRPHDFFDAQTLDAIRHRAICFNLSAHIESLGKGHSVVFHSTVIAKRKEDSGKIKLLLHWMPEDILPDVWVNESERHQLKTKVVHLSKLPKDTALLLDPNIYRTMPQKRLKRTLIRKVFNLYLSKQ
Sequence of purified human, His-tagged PRC2 complex (Q09028 whole entry partner): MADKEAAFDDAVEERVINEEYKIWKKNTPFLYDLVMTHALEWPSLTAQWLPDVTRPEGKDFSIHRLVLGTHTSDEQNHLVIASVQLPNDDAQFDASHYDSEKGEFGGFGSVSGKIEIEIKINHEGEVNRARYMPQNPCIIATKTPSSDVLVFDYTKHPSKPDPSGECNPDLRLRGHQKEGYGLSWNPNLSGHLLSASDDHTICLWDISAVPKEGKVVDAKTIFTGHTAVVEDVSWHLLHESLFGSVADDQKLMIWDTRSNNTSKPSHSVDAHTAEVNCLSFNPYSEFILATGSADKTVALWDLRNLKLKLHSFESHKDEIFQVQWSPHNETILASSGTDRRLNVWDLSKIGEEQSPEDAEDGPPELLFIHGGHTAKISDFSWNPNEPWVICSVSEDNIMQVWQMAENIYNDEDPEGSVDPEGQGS
Protocol: Ten-point dose-response curves for compounds of the present invention were determined using a Hot Spot HMT assay (Reaction Biology Corp; see Horiuchi et al., Assay Drug Dev Technol. (2013) 4: 227-236 doi: 10.1089/adt.2012.480). The assay uses purified human, His-tagged PRC2 complex, including N-terminal His-tagged EZH2 enzyme, N-terminal Flag-tagged embryonic ectoderm development protein (EED), N-terminal His-tagged suppressor of zeste 12 (SUZ12), N-terminal His-tagged AEBP2, and N-terminal His-tagged RbAp48. In this assay, the transfer of the tritiated methyl group from radiolabeled S-adenosyl methionine (SAM) to purified core histone protein by EZH2 is quantitated after filtration to determine the activity of the core PRC2 complex in the presence and absence of compound.
Briefly, compounds of the present invention were solubilized in DMSO and a series of 10, three-fold serial dilutions were made for each compound in 15% DMSO. The initial starting concentration for the serial dilutions of each compound was 1.0 μM. Control samples lacking compound, EZH2 enzyme or various reaction components also were prepared and processed in parallel with compound test samples. SAH (S-(5-adenosyl)-L-homocysteine) was used as a positive control for assay validation.
An aliquot of each serial dilution of test compound was added to deep 384 well plate using Acoustic Technology instrument (Echo 550, LabCyte) containing reaction buffer (50 mM Tris-HCl (pH 8.)), 0.01% Brij35, 1 mM EDTA, 1 mM DTT, 1 mM PMSF and 1% DMSO), 10 nM purified PRC2 complex and 0.05 mg/ml core histone H3 in a 5 μl volume. The reaction was mixed gently and then pre-incubated for 20 min at 30° C. The enzymatic reaction was initiated by adding 1 uM S-Adenosyl-L-[methyl ^3H]methionine and incubated for 1 hr at 30° C. After 1 hr, the reaction product was detected using a filter binding method and the amount of tritiated H3 core histone was quantitated using a scintillation counter. The IC50 value for each compound was determined from each 10-point dose-response curve using GraphPad Prism software and the results for exemplary compounds of Formula (I) are shown in Table 5. Key: A=≤250 nM; B=>250 nM—≤500 nM; and C=>500 nM—≤2 μM.

[2] = system: PRC2-mediated histone H3 methylation (H3 Lys27 trimethylation) in Pfeiffer cells expressing mutant EZH2 (A677G); assay: Tri-Methyl Histone H3 (Lys 27) sandwich ELISA in Pfeiffer cells; format: cell-based, human; conditions: Pfeiffer cells, 96 hours incubation, ELISA, read-out: IC50, Inhibition of EZH2-mediated Histone H3 Trimethylation
Text: The Pfeiffer cell line was established from a […] from a patient having metastatic diffuse large B-cell lymphoma (DLBCL). This cell line expresses a mutant form of the EZH2 enzyme (A677G) that results in enhanced EZH2 activity leading to increased methylation of histone H3 Lys27. Increased trimethylation of histone H3 Lys27 is believed to be implicated in tumorgenesis and poor clinical prognosis in lymphomas (McCabe et al., (2012) Nature 492:108-112).
Inhibition of PRC2-mediated histone H3 methylation by compounds of Formula (I) was measured by ELISA using a Tri-Methyl Histone H3 (Lys 27) Sandwich ELISA Kit (Cell Signaling Tech #7866C) in accordance with the manufacturer's instructions. Briefly, Pfeiffer cells were cultured in RPMI medium supplemented with 10% fetal bovine serum and 1% penicillin and 1% streptomycin in 96 well culture plates at 37° C. to a density of 8000 cells/90 μl/well and the cells were harvested. A series of 3-fold serial dilutions of each test compound of Formula (I) were prepared in RPMI medium and added to the cells at final concentrations ranging from 1 μM to 0.15 nM. The plates were incubated at 37° C. for 96 hours.
After incubation, the cells were pelleted by centrifugation in a pre-cooled 4° C. rotor at 1,100 rpm for 10 min and the supernatant was removed by aspiration. The cell pellet was resuspended in 55 μl of Lysis Buffer (0.4M HCl) and incubated on ice with periodic shaking for 30 minutes. The lysed cells were subjected to centrifugation at 4,200 rpm for 10 min at 4° C. and the supernatant containing acid-soluble proteins was collected and the remainder discarded. The acid-soluble proteins were brought to a neutral pH by the addition of 20 μl of Neutralization Buffer (1 M Sodium phosphate, dibasic (pH 12.5), 2.5 mM DTT and 1 mM PMSF) and the neutralized lysates were analyzed by ELISA.
A 65 μl aliquot of each cell lysate was added to a well of a microwell strip, the microwells were sealed using tape and incubated either at 37° C. for two hours or at 4° C. overnight. After incubation, the tape was removed at the microwells were washed four times using 200 μl of 1× Wash Buffer. To each washed microwell, a 100 μl aliquot of an anti-trimethyl histone H3 Lys27 Detection Antibody solution was added and the microwells were incubated at 37° C. for one hour. The Detection Antibody solution was removed by aspiration and the wells were washed four times each using 200 μl of 1× Wash Buffer.
A 100 μl aliquot of an HRP-linked secondary antibody was added to each well, the wells were sealed with tape and incubated at 37° C. for 30 min. The HRP-linked secondary antibody solution was removed by aspiration and the wells were washed four times using 200 μl of 1× Wash Buffer. A 100 μl aliquot of a TMB substrate was added to each well, the wells were sealed with tape and incubated at 37° C. for 10 min or 25° C. for 30 min. The reaction was stopped by the addition of 100 μl aliquot of a STOP solution and the plate was shaken briefly. The degree of histone H3 trimethylation was determined using a spectrophotometric readout by measuring the absorbance at 450 nm and then calculating the amount of trimethylated histone H3. Key: A=≤250 nM; B=>250 nM-≤500 nM; and C=>500 nM-≤5 μM.

[3] = system: Karpas 422 cells expressing mutant EZH2 (Y641N); assay: Karpas 422 cell viability (Cell Titre Glo) assay; format: cell-based, human; conditions: CTG viability, time point (Day 4, Day 7 or Day 11) not given, read-out: IC50, Inhibiting Proliferation of Cells Expressing an Activating Mutant Form of EZH2
Protocol: Karpas 422 cell line is a human B cell non-Hodgkin's lymphoma cell line established from a patient having DLBCL. This EZH2 heterozygotic cell line expresses a mutant form of EZH2 enzyme (Y641N) that increases histone H3 methylation and this mutation has been implicated in the tumorgenesis of lymphomas, such as DLBCL.
Karpas 422 cells (PHE cat no., 06101702) were cultured in RPMI medium supplemented with 20% fetal bovine serum and 1% penicillin/1% streptomycin and plated at a density of 1000 cells/90 μl/well in 96 well white assay plates. A dose response curve for compounds of the present invention was determined by adding a 10 μl aliquot of stock solutions of varying concentrations of compounds to the same medium in each well, over a concentration range of 10 μM using 3-fold dilutions to a final concentration of 1.5 nM. The plates were incubated at 37° C. for predetermined time periods, Day 4, Day 7, or Day 11, and the viability of the cells was measured using a CTG assay kit (Cell Titre Glo; Promega cat. no G7573) on Day 4 and Day 7 in accordance with the manufacturer's instructions.
For the viability assay for the Day 11 plates, the plates were subjected to centrifugation at 1100 rpm for five minutes on Day 7 and the supernatant was removed by aspiration. The cells were resuspended in 90 μl aliquot of the appropriate growth medium lacking the compound followed by addition of 10 μl of a 10× stock of the same compound at the same concentration. The viability of the Day 11 cells was measured using the CTG assay kit described above in accordance with the manufacturer's instructions. The IC50 values for each compound at each predetermined time point were calculated using Graph pad PRISM software and the results are shown in Table 7. Key: A=≤250 nM; B=>250 nM-≤500 nM; C=>500 nM-≤5 μM and N.D.=not determined.

SMILES | pIC50 [1] | pIC50 ([2]; Homo sapiens) | pIC50 ([3]; Homo sapiens) | pIC50 [2] | pIC50 [3]
Cc1cc(-c2cnc(NCc3cccc4c3CCO4)n3cc(CN)nc23)n(C)n1 [Example 23, 2-(aminomethyl)-N-((2,3-dihydrobenzofuran-4-yl)methyl)-8-(1,3-dimethyl-1H-pyrazol-5-yl)imidazo[1,2-c]pyrimidin-5-amine] | 5.70 to 6.30 | 5.30 to 6.30 | 5.30 to 6.30 |  | 
Cc1cc(-c2cnc(NCc3c(F)ccc4c3CCO4)n3cc(C(C)N)nc23)n(C)n1 (single isomer, unassigned) [Example 12, 2-(1-aminoethyl)-8-(1,3-dimethyl-1H-pyrazol-5-yl)-N-((5-fluoro-2,3-dihydrobenzofuran-4-yl)methyl)imidazo[1,2-c]pyrimidin-5-amine] | > 6.60 |  |  | > 6.60 | > 6.60
Cc1cc(-c2cnc(NCc3c(F)ccc4c3CCO4)n3cc(C(C)N)nc23)n(C)n1 (single isomer, unassigned) [Example 11, 2-(1-aminoethyl)-8-(1,3-dimethyl-1H-pyrazol-5-yl)-N-((5-fluoro-2,3-dihydrobenzofuran-4-yl)methyl)imidazo[1,2-c]pyrimidin-5-amine] | 5.70 to 6.30 | > 6.60 | > 6.60 |  | 
Cc1cc(-c2cnc(NCc3c(F)ccc4c3CCO4)n3cc(CN(CCS(=O)(=O)F)CCS(=O)(=O)F)nc23)n(C)n1 [Example 28, 2,2′-(((8-(1,3-dimethyl-1H-pyrazol-5-yl)-5-(((5-fluoro-2,3-dihydrobenzofuran-4-yl)methyl)amino)imidazo[1,2-c]pyrimidin-2-yl)methyl)azanediyl)bis(ethane-1-sulfonylfluoride)] | 5.70 to 6.30 |  |  | 5.30 to 6.30 | 5.30 to 6.30
Cc1cc(C(=O)N(C)C)ncc1-c1cnc(NCc2c(F)ccc3c2CCO3)n2cc(C(C)N)nc12 (stereo not drawn) [Example 35, 5-(2-(1-aminoethyl)-5-(((5-fluoro-2,3-dihydrobenzofuran-4-yl)methyl)amino)imidazo[1,2-c]pyrimidin-8-yl)-N,N,4-trimethylpicolinamide] | > 6.60 | > 6.60 | > 6.60 |  | 
Cc1cc(-c2cnc(NCc3c(F)ccc4c3CCO4)n3cc(-c4cnco4)nc23)n(C)n1 [Example 45, 8-(1,3-dimethyl-1H-pyrazol-5-yl)-N-((5-fluoro-2,3-dihydrobenzofuran-4-yl)methyl)-2-(oxazol-5-yl)imidazo[1,2-c]pyrimidin-5-amine] | > 6.60 | 6.30 to 6.60 | > 6.60 |  | 
Cc1c(F)cccc1-c1cnc(NCc2c(F)ccc3c2CCO3)n2cc(CN)nc12 [Example 17, 2-(aminomethyl)-N-((5-fluoro-2,3-dihydrobenzofuran-4-yl)methyl)-8-(3-fluoro-2-methylphenyl)imidazo[1,2-c]pyrimidin-5-amine] | 5.70 to 6.30 | 5.30 to 6.30 | 5.30 to 6.30 |  | 

Continued, in another order:

pIC50 [1] | pIC50 ([2]; Homo sapiens) | pIC50 ([3]; Homo sapiens) | SMILES | pIC50 [2] | pIC50 [3]
5.70 to 6.30 | 5.30 to 6.30 | 5.30 to 6.30 | Cc1cc(-c2cnc(NCc3c(F)ccc4c3CCO4)n3cc(CN4CC(O)C4)nc23)n(C)n1 [Example 31, 1-((8-(1,3-dimethyl-1H-pyrazol-5-yl)-5-(((5-fluoro-2,3-dihydrobenzofuran-4-yl)methyl)amino)imidazo[1,2-c]pyrimidin-2-yl)methyl)azetidin-3-ol] |  | 
5.70 to 6.30 | 6.30 to 6.60 | > 6.60 | Cc1cc(-c2cnc(NCc3c(F)ccc4c3CCO4)n3cc(CNC4CCC4)nc23)n(C)n1 [Example 30, 2-((cyclobutylamino)methyl)-8-(1,3-dimethyl-1H-pyrazol-5-yl)-N-((5-fluoro-2,3-dihydrobenzofuran-4-yl)methyl)imidazo[1,2-c]pyrimidin-5-amine] |  | 
5.70 to 6.30 | 6.30 to 6.60 | 6.30 to 6.60 | Cc1cc(-c2cnc(NCc3c(F)ccc4c3CCO4)n3cc(CNC4CC4)nc23)n(C)n1 [Example 33, 2-((cyclopropylamino)methyl)-8-(1,3-dimethyl-1H-pyrazol-5-yl)-N-((5-fluoro-2,3-dihydrobenzofuran-4-yl)methyl)imidazo[1,2-c]pyrimidin-5-amine] |  | 
> 6.60 | > 6.60 | 5.30 to 6.30 | Cc1cc(-c2cnc(NCc3c(F)ccc4c3CCO4)n3cc(C(C)O)nc23)n(C)n1 (stereo not drawn) [Example 7, 1-(8-(1,3-dimethyl-1H-pyrazol-5-yl)-5-(((5-fluoro-2,3-dihydrobenzofuran-4-yl)methyl)amino)imidazo[1,2-c]pyrimidin-2-yl)ethan-1-ol] |  | 
